For 14 molecules, Ki results are on record in patent publication US6872834B2, “Phenyl-substituted indoles and indazoles” (Ortho-McNeil Pharmaceutical, Inc., priority 2000, dated 2005).

The target of this assay is T1, histamine H3 receptor (Homo sapiens, UniProt Q9Y5N1).
T1 construct: expressed in transfected cells; membranes
T1 sequence (Q9Y5N1 whole entry): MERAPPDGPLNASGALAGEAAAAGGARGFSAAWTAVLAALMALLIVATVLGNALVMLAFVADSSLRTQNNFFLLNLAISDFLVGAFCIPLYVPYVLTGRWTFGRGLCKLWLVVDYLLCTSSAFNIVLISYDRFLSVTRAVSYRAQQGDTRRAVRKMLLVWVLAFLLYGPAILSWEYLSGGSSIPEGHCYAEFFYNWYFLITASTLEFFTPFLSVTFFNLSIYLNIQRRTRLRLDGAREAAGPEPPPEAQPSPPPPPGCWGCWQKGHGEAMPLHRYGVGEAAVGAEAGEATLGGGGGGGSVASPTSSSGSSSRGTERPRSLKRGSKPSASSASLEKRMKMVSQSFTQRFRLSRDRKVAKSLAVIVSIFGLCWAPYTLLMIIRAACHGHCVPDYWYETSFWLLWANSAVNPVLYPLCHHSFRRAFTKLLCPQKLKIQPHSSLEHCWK
As to the kind of experiment: [3H]-N-methylhistamine binding. Particulars: membranes from histamine H3 receptor-expressing SK-N-MC cells; 0.8 nM [3H]-N-methylhistamine; 45 minutes at 25° C. As to the method: 1(A) Transfection of Cells with Human Histamine Receptor
A 10 cm tissue culture dish with a confluent monolayer of SK-N-MC cells was split two days prior to transfection. Using sterile technique the media was removed and the cells were detached from the dish by the addition of trypsin. One fifth of the cells were then placed onto a new 10 cm dish. Cells were grown in a 37° C. incubator with 5% CO2 in Minimal Essential Media Eagle with 10% Fetal Bovine Serum. After two days cells were approximately 80% confluent. These were removed from the dish with trypsin and pelleted in a clinical centrifuge. […] One μg supercoiled H3 receptor cDNA was added to the cells and mixed. The voltage for the electroporation was set at 0.25 kV, the capacitance is set at 960 μF.
After electroporation the cells were diluted into 10 mL complete media and plated onto four 10 cm dishes. Due to the variability in the efficiency of electroporation, four different concentrations of cells were plated. The ratios used were: 1:20, 1:10, and 1:5, with the remainder of the cells being added to the fourth dish. The cells were allowed to recover for 24 hours before adding the selection media (complete media with 600 μg/ml G418). After 10 days dishes were analyzed for surviving colonies of cells. Dishes with well-isolated colonies were used. Cells from individual colonies were isolated and tested. SK-N-MC cells were used because they give efficient coupling for inhibition of adenylate cyclase. The clones that gave the most robust inhibition of adenylate cyclase in response to histamine were used for further study.
1(B) [3H]-N-methylhistamine Binding
Cell pellets from histamine H3 receptor-expressing SK-N-MC cells were homogenized in 20 mM TrisHCl/0.5 mM EDTA. Supernatants from a 800 g spin were collected, reccentrifuged at 30,000 g for 30 minutes. Pellets were rehomogenized in 50 mM Tris/5 mM EDTA (pH 7.4). Membranes were incubated with 0.8 nM [^3H]-N-methylhistamine plus/minus test compounds for 45 minutes at 25° C. and harvested by rapid filtration over GF/C glass fiber filters (pretreated with 0.3% polyethylenimine) followed by four washes with ice cold buffer. Filters were dried, added to 4 mL scintillation cocktail and then counted on a liquid scintillation counter. Non-specific binding was defined with 10 μM histamine.
Turning to `c1ccc2[nH]c(-c3ccc(OCCCN4CCCCC4)cc3)cc2c1` [Example 2, 2-[4-(3-Piperidinopropoxy]phenyl)-1H-indole], the affinity, expressed as Ki, was 48 nM.
With `CN1CCCC1CCOc1ccc(-c2cc3ccccc3n2S(C)(=O)=O)cc1` (centres unmarked) [Example 3, 2-[4-[2-[1-(methyl)-2-pyrrolidinyl]ethoxy]phenyl)-1-(methylsulfonyl)-1H-indole] the figure was 77 nM.
The result for `CN1CCN(CCCOc2ccc(-c3cc4ccccc4[nH]3)cc2)CC1` [Example 16, 2-(4-(3-(4-Methylpiperazino)propoxy)phenyl)indole] reads 2000 nM; that for `CN1CCC(Oc2ccc(-c3cc4ccccc4n3S(C)(=O)=O)cc2)CC1` [Example 5, 2-[4-[1-(methyl)-4-piperidinyl]oxyphenyl]-1-(methylsulfonyl)-1H-indole], 107 nM.
With `CN1CCN(CCCOc2ccc(-c3cc4cc(Cl)ccc4n3S(C)(=O)=O)cc2)CC1` [Example 17] the figure was 3000 nM.
With `CN1CCCC1CCOc1ccc(-c2cc3ccccc3[nH]2)cc1` (centres unmarked) [Example 4, 2-[4-[2-[1-(methyl)-2-pyrrolidinyl]ethoxy]phenyl)-1H-indole], the affinity, expressed as Ki, was 100 nM.
With `CN(C)CCCOc1ccc(-c2cc3ccccc3n2S(C)(=O)=O)cc1` [Example 7, 2-[4-[3-Dimethylaminopropoxy]phenyl]-1-(methylsulfonyl)-1H-indole] the figure was 120 nM; with `CS(=O)(=O)n1c(-c2cccc(OCCCN3CCCCC3)c2)cc2ccccc21` [Example 15, 2-[3-[3-Piperidinopropoxy]phenyl)-1-(methylsulfonyl)-1H-indole], 33 nM.
With `CS(=O)(=O)n1c(-c2ccc(OCc3ccncc3)cc2)cc2ccccc21` [Example 9, 2-[4-[4-Pyridinyl]methoxyphenyl]-1-(methylsulfonyl)-1H-indole] the figure was 5000 nM; with `CS(=O)(=O)n1c(-c2ccc(OCCCN3CCCCC3)cc2)cc2ccccc21` [Example 1, 2-[4-[3-Piperidinopropoxy]phenyl)-1-(methylsulfonyl)-1H-indole], 7 nM; with `CN1CCC(Oc2ccc(-c3cc4ccccc4[nH]3)cc2)CC1` [Example 6, 2-[4-[1-(methyl)-4-piperidinyl]oxyphenyl] 1H-indole], 390 nM.
With `CCN(CC)CCOc1ccc(-c2cc3ccccc3n2S(C)(=O)=O)cc1` [Example 10, 2-[4-[2-Diethylaminoethoxy]phenyl]-1-(methylsulfonyl)-1H-indole] the figure was 369 nM; with `CN(C)CCCOc1ccc(-c2cc3ccccc3[nH]2)cc1` [Example 8, 2-[4-[3-Dimethylaminopropoxy]phenyl] 1H-indole], 500 nM; with `CCN(CC)CCOc1ccc(-c2cc3ccccc3[nH]2)cc1` [Example 11, 2-[4-[2-Diethylaminoethoxy]phenyl]-1H-indole], 523 nM.
